Like-named read-outs stand apart in the source and are kept apart here.
Experiments:
[1] = test system: systolic and diastolic blood pressure; conditions: cited from earlier work
guinea pigs = conditions: non-ascorbate deficient animals, double the dose of 3.75 mmol/kg daily; cited from earlier work
[2] = human, in vivo, iv; cited from earlier work
Mouse = conditions: pretreatment with GSH; cited from earlier work
in vivo = conditions: po
From the text: Once past the stomach, it is important that the glutathione be immediately available for absorption, as the desulfurases and peptidases from the pancreas, as well as the increase in pH, do tend to degrade the glutathione. […] Thus, by providing a high concentration of glutathione in the duodenum, without substantial dilution, the glutathione may be absorbed at a maximum rate.

With `N[C@@H](CCC(=O)N[C@@H](CS)C(=O)NCC(=O)O)C(=O)O` [GSH, gamma-glutamyl-cysteinyl-glycine] as the compound, how does the “time of return of blood pressure to baseline” value ([1]; 1,844 mg i.v. bolus) read?
The value was ≤ 30 min.

What about the blood pressure effect ([1]; 1,844 mg i.v. bolus, hypertensive patients and non-hypertensive diabetics) of the same compound?
Its blood pressure effect is “rapid and significant decrease in both systolic and diastolic blood pressure”.

What about the blood pressure effect ([1]; 1,844 mg i.v. bolus, normal healthy subjects) of the same compound?
The blood pressure effect was “no effect”.

What about the blood pressure effect ([1]; 3,699 mg dose, normal subjects) of the same compound?
The blood pressure effect was “significant decrease in the blood pressure values”.

What about the toxicity (guinea pigs) of the same compound?
The toxicity was “seen at double this dose”.

And the half-life [2]?
Its half-life is 14.1−9.2 minutes.

What about the “volume of distribution of exogenous glutathione” value [2] of the same compound?
Its value is 176−107 Ml/Kg.

What about the “effect on morphine-induced lethality” value (Mouse) of the same compound?
The value was “protects against morphine-induced lethality”.

And the bioavailability (in vivo)?
Its bioavailability is ~90%.

— patent US6586404B1 (priority 1996, dated 2003)
